From PMC3187749, “Discovery of Diverse Small Molecule Chemotypes with Cell-Based PKD1 Inhibitory Activity” (PLoS ONE, 2011) come the findings set out here.

As a reminder, the IC50 is the concentration that gives 50% inhibition. The term EC50 denotes the concentration giving half of the maximal effect. As a reminder, the inhibition is the drop in the measured response relative to a control, in per cent.

The subject of one assay is PLK1. The assay can be described thus: IMAP-based PLK1 counter screen. The settings on record: concentrations up to 50 µM. Format: biochemical. The source says:
It was also gratifying that, in general, our novel cell active PKD1 inhibitors appeared to be less promiscuous than PKD1 inhibitors having minimal to no cellular PKD1 inhibitory activity (Table 1). For example, CIDs 755673 and 1893668 display additional confirmed activity in six and seven, respectively, PubChem bioassays while CID 2011756 has confirmed activity in only one additional PubChem bioassay. […] In contrast, the remaining chemotypes registered as confirmed actives in 2–43 additional bioassays (Table 1). Additional chemical similarity searching, focusing on our four novel cell-active PKD1 inhibitory chemotypes, using MetaDrug also supports a comparative lack of promiscuity of these compounds.
Background: A counterscreen serves to expose hits that act by an unwanted route or on another target.

The target in the next assay is T1, recombinant human PKD1 (Homo sapiens, UniProt Q15139).
T1 construct: His; purchased Millipore (Billerica, MA)
T1 sequence (Q15139 1-912): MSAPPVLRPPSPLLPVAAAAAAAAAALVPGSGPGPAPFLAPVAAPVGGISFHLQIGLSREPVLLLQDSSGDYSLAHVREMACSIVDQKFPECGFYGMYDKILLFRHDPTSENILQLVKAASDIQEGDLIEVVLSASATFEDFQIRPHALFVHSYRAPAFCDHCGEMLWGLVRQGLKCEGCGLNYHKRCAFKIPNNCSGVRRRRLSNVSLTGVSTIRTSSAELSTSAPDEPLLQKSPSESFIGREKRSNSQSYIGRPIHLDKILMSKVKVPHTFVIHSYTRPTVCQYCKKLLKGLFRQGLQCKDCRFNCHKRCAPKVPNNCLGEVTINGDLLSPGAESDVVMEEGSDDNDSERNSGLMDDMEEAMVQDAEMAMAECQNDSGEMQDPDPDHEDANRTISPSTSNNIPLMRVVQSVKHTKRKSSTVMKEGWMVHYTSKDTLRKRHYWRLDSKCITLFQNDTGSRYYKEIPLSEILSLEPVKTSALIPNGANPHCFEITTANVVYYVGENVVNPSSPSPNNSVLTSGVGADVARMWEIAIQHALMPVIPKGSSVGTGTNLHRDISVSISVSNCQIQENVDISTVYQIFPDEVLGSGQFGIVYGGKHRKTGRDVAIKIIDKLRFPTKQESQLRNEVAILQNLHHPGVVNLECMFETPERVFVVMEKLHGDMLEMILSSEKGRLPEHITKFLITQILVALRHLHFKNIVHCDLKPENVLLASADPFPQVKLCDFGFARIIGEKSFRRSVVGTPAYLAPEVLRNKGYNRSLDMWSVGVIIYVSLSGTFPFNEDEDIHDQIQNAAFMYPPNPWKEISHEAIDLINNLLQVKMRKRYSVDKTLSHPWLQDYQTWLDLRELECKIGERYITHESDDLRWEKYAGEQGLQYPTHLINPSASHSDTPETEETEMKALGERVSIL
The experiment in a line: In vitro radiometric PKD1 kinase assay. The following applies: radiometric PKD1 kinase assay; mean ± range or SD of 2–4 independent experiments; read-out: In vitro PKD1 IC50. The class given is biochemical. How it is done: (§1) Kinase reactions were initiated with the addition of ATP (50 µM ATP, 1.0 µCi γ-^33P-ATP; Perkin Elmer, Boston, MA) and incubated for 20 min at 30°C. Twenty-five µL of the reaction was spotted onto Whatman P81 filter paper (Whatman Inc., Clifton, NJ). Filter papers were then washed three times in 0.5% phosphoric acid, air-dried, and counted using an LS6500 multi-purpose scintillation counter (Beckman Coulter, Fullerton, CA). IC50 determinations were performed using GraphPad Prism software 5.0. Radiometric PKD2 and PKD3 in vitro kinase assays were performed as previously described.

Assay [1] has as its target T2, endogenous PKD1 (Ser916 phosphorylation) in LNCaP prostate cancer cells (Homo sapiens, UniProt Q15139).
T2 construct: phosphorylation of endogenously expressed PKD1 Ser^916; endogenous in cells; host or cells: LNCaP prostate cancer cells
T2 sequence (Q15139 1-912): T1 sequence (Q15139 1-912)
The experiment in a line: Western blot of PMA-induced phospho-Ser916-PKD1 in LNCaP cells. The class given is cell-based. The protocol:
Briefly, prostate cancer cells (LNCaP) were exposed to test compounds. Cells were lysed in buffer (200 mM Tris-HCl, pH 7.4, 100 µM 4-(2-aminoethyl) benzenesulfonyl fluoride, 1 mM EGTA, and 1% Triton X-100) and cell lysates were subjected to SDS-PAGE then electrotransferred to nitrocellulose membranes. Membranes were blocked with 5% nonfat milk in Tris-buffered saline. Membranes were probed with a primary antibody then followed by a secondary anti-mouse or anti-rabbit secondary antibody conjugated to horseradish peroxidase (1∶1000, Bio-Rad). Bands were visualized by the enhanced chemiluminescence Western blotting detection system (Amersham Biosciences). The primary antibodies included p-S916-PKD1 antibody (Millipore) and GAPDH (Enzo Life Sciences, Plymouth Meeting, PA).
[…] Whole cell lysates were immunoblotted for phosphorylated Ser^916-PKD1 with GAPDH serving as a loading control.
Background: In western blotting, separated proteins are transferred to a membrane and probed.

The next assay deals with T3, PKD3 (Homo sapiens, UniProt O94806).
T3 sequence (O94806 1-890): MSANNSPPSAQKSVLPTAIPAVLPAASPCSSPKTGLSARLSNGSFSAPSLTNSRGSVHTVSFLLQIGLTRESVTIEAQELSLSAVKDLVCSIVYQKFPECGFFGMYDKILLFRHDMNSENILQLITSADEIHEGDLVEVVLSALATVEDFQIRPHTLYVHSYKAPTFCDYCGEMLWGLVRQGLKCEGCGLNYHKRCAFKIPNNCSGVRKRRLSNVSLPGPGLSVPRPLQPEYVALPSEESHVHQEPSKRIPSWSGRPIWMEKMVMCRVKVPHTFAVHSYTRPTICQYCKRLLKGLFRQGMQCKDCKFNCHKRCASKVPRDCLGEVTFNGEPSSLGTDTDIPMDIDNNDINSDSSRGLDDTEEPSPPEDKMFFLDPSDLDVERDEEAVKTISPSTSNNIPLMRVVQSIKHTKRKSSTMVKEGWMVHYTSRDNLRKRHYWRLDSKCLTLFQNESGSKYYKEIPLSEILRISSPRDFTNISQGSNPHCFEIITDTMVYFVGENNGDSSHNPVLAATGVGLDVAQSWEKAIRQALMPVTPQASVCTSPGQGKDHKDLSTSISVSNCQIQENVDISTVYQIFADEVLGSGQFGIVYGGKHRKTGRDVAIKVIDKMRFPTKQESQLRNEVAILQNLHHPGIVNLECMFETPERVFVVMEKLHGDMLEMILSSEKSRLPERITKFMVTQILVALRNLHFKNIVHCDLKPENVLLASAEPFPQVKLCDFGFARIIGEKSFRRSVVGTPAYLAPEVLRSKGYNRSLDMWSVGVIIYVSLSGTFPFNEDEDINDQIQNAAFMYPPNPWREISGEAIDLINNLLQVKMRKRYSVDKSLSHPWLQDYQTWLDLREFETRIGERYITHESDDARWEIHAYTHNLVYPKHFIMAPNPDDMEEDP
The experiment in a line: Radiometric PKD3 in vitro kinase assay. Format: biochemical. The settings on record: preliminary in vitro data. How it is done: as §1

In the case of `O=C(Nc1ccc(CN2CCOCC2)cc1)c1ccc(-c2cccc(Cl)c2)o1` [CID 2011756, 5-(3-chlorophenyl)-N-[4-(morpholin-4-ylmethyl)phenyl]furan-2-carboxamide], in the assay on PLK1, the PLK1 kinase inhibition entry is listed as “no kinase inhibition”. The figures for the IC50 on recombinant human PKD1 and against PKD3 were 3.2 ± 0.1 µM and 0.7 ± 0.2 µM, respectively. Further, the EC50 in assay [1] (LNCaP cells, PMA stimulation, n = 3, read-out: Cellular EC50 (phospho-Ser916-PKD1)) worked out at 10 ± 0.7 µM. The “Concentration dependence of inhibition of PMA-induced endogenous PKD1 activity” value in assay [1] (LNCaP cells, Western blot) was “concentration-dependent inhibition”. Further, the inhibition at 50 µM in assay [1] (LNCaP, read-out: Inhibition of phosphorylation of Ser916-PKD1) was above 50%.
